Legend:
E. coli ATCC 25922 = test: MIC determination; format: cell-based, Escherichia coli; conditions: for Minimum inhibitory concentration, E. coli ATCC 25922: MIC, duplicate, at least two independent experiments
S. aureus ATCC 29213 = test: MIC determination; format: cell-based, Staphylococcus aureus; conditions: duplicate, at least two independent experiments
P. aeruginosa ATCC 27853 = test: MIC determination, P. aeruginosa ATCC 27853; format: cell-based
C. albicans ATCC 28517 = test: MIC determination, C. albicans ATCC 28517; format: cell-based
E.faecium ATCC 29212 = test: MIC determination; format: cell-based, Enterococcus faecium; conditions: duplicate, at least two independent experiments
S. aureus ATCC 43300 = test: MIC determination; format: cell-based, Staphylococcus aureus; conditions: duplicate, at least two independent experiments
[1] = test system: monkey kidney cell line (BSC-1); test: Cytotoxicity against monkey kidney cell line BSC-1; format: cell-based
E.faecium ATCC 51299 = test: MIC determination; format: cell-based, Enterococcus faecium; conditions: duplicate, at least two independent experiments
[2] = test system: human colorectal tumor cell line (HCT-116); test: Cytotoxicity against human colorectal tumor cell line HCT-116; format: cell-based; conditions: maximum tested concentration 50 μg/mL
[3] = test system: bacterial strains and cell lines of Table 3; test: Cytotoxity and antibacterial activity, all assays; format: cell-based
[4] = test system: bacteria (broad-spectrum); conditions: cited from earlier work

## 1-(3′,4′,6′-Tribromo-1′-methoxyphenoxy)-3,5-dibromo-2-methoxybenzene [Compound 3a]
E. coli ATCC 25922
  Minimum inhibitory concentration, E. coli ATCC 25922: >50 µg/mL
S. aureus ATCC 29213
  Minimum inhibitory concentration, S. aureus ATCC 29213: >50 µg/mL
P. aeruginosa ATCC 27853
  Minimum inhibitory concentration, P. aeruginosa ATCC 27853: >50 µg/mL
C. albicans ATCC 28517
  Minimum inhibitory concentration, C. albicans ATCC 28517: >50 µg/mL
E.faecium ATCC 29212
  Minimum inhibitory concentration, E.faecium ATCC 29212: 50 µg/mL
S. aureus ATCC 43300
  Minimum inhibitory concentration, S. aureus ATCC 43300: >50 µg/mL
[1]
  Cytotoxicity Bsc-1 (IC50): >50 µg/mL
E.faecium ATCC 51299
  Minimum inhibitory concentration, E.faecium ATCC 51299: >50 µg/mL

## COc1c(Br)cc(Br)cc1Oc1c(Br)c(OC)c(Br)c(Br)c1OC [Compound 8a, 1-(3′,5′,6′-Tribromo-1′,4′-dimethoxy-1′-phenoxy)-3,5-dibromo-2-methoxybenzene]
[2]
  Toxicity against HCT-116 (in words): nontoxic
[3]
  Cytotoxity and antibacterial activity in all assays (in words): inactive in all assays

## Oc1c(Br)cc(Br)cc1Oc1ccc(Br)cc1Br [Compound 10]
E. coli ATCC 25922; authors' antimicrobial assays
  Inhibition of growth of E. coli (in words): did not inhibit the growth
[4]
  Antibacterial activity previously reported (in words): broad-spectrum antibacterial activity

## 1-(4′,5′,6′-Tribromo-1′-methoxyphenoxy)-3,5-dibromo-2-methoxybenzene [Compound 5a]
E. coli ATCC 25922
  Minimum inhibitory concentration, E. coli ATCC 25922: >50 µg/mL
S. aureus ATCC 29213
  Minimum inhibitory concentration, S. aureus ATCC 29213: >50 µg/mL
P. aeruginosa ATCC 27853
  Minimum inhibitory concentration, P. aeruginosa ATCC 27853: >50 µg/mL
C. albicans ATCC 28517
  Minimum inhibitory concentration, C. albicans ATCC 28517: >50 µg/mL
E.faecium ATCC 29212
  Minimum inhibitory concentration, E.faecium ATCC 29212: >50 µg/mL
S. aureus ATCC 43300
  Minimum inhibitory concentration, S. aureus ATCC 43300: >50 µg/mL
[1]
  Cytotoxicity Bsc-1 (IC50): >50 µg/mL
E.faecium ATCC 51299
  Minimum inhibitory concentration, E.faecium ATCC 51299: >50 µg/mL

Reference: paper PMC6201272 (Journal of natural products, 2016)
